These compounds were tested against Recombinant human ULK1 (1-649) (Homo sapiens (Human), UniProt O75385) (assay: ULK1 ADP Glo kinase activity assay, new method (ULKtide peptide substrate)). Settings: 25° C., 40 minutes, read-out: ULK1 biochemical IC50.
Method in brief: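 Kinase activity was read as ADP production (ADP-Glo, luminescence 30 min after detection reagent) following a 40-min, 25 °C reaction of Sf9-expressed GST-ULK1 (1-649) with ULKtide substrate and ATP. Compounds ran as 12-point series starting at 10 μM; four-parameter curve fitting versus DMSO wells gave IC50.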

Recombinant human ULK1 (1-649), sequence (O75385 1-649): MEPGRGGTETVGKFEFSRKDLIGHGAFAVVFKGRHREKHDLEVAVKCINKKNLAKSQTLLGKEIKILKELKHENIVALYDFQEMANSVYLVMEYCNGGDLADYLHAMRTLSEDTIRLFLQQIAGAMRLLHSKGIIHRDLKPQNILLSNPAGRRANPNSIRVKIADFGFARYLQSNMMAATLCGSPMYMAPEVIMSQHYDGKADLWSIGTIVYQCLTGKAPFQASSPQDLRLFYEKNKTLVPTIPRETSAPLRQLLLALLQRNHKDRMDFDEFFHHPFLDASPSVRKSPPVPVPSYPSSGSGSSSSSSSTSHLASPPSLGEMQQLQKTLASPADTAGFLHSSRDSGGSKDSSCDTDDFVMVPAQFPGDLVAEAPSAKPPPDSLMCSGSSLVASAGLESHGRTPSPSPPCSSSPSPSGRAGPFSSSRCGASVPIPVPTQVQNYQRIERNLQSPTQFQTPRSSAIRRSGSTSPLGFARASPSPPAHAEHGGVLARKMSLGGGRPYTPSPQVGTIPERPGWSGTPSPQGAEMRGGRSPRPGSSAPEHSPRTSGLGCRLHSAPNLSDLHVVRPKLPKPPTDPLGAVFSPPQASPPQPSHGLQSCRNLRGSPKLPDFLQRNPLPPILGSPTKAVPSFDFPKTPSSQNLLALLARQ

IC50 [nM]	Compound
≤ 5	CC1(CN2CCc3cc(Nc4ncc(C(F)(F)F)c(-c5cc6c(s5)C(=O)N(C5COC5)CCS6(=O)=O)n4)c(C4CC4)cc3C2)COC1 [Example 286, 7-(2-((7-cyclopropyl-2-((3-methyloxetan-3-yl)methyl)-1,2,3,4-tetrahydroisoquinolin-6-yl)amino)-5-(trifluoromethyl)pyrimidin-4-yl)-4-(oxetan-3-yl)-3,4-dihydrothieno[2,3-f][1,4]thiazepin-5(2H)-one 1,1-dioxide]
≤ 5	O=C1c2sc(-c3nc(Nc4ccc(C5CCN(CC6CC6)CC5)cc4C4CC4)ncc3C(F)(F)F)cc2S(=O)(=O)CCN1C1CC1 [Example 241, 4-cyclopropyl-7-(2-((2-cyclopropyl-4-(1-(cyclopropylmethyl)piperidin-4-yl)phenyl)amino)-5-(trifluoromethyl)pyrimidin-4-yl)-3,4-dihydrothieno[2,3-f][1,4]thiazepin-5(2H)-one 1,1-dioxide]
50 to 100	CCN1Cc2ccc(Nc3ncc(C(F)(F)F)c(-c4cc5c(s4)C(=O)N(C)CCS5(=O)=O)n3)c(C3CC3)c2C1 [Example 191, 7-(2-((4-cyclopropyl-2-ethylisoindolin-5-yl)amino)-5-(trifluoromethyl)pyrimidin-4-yl)-4-methyl-3,4-dihydrothieno[2,3-f][1,4]thiazepin-5(2H)-one 1,1-dioxide]
≤ 5	CCN1CCc2cc(Nc3ncc(C(F)(F)F)c(-c4cc5c(s4)C(=O)N(C4CCC4)CCS5(=O)=O)n3)c(Cl)cc2C1 [Example 203, 7-(2-((7-chloro-2-ethyl-1,2,3,4-tetrahydroisoquinolin-6-yl)amino)-5-(trifluoromethyl)pyrimidin-4-yl)-4-cyclobutyl-3,4-dihydrothieno[2,3-f][1,4]thiazepin-5(2H)-one 1,1-dioxide]
≤ 5	C[C@@H]1CN(c2ccc(Nc3ncc(C(F)(F)F)c(-c4cc5c(s4)C(=O)N(C4COC4)CCS5(=O)=O)n3)c(C3CC3)c2)CCN1 [Example 315, (R)-7-(2-((2-cyclopropyl-4-(3-methylpiperazin-1-yl)phenyl)amino)-5-(trifluoromethyl)pyrimidin-4-yl)-4-(oxetan-3-yl)-3,4-dihydrothieno[2,3-f][1,4]thiazepin-5(2H)-one 1,1-dioxide]
≤ 5	CCc1cc(N2CCN(CC(N)=O)CC2)ccc1Nc1ncc(C(F)(F)F)c(-c2cc3c(s2)C(=O)N(C2CC2)CCS3(=O)=O)n1 [Example 280, 2-(4-(4-((4-(4-cyclopropyl-1,1-dioxido-5-oxo-2,3,4,5-tetrahydrothieno[2,3-f][1,4]thiazepin-7-yl)-5-(trifluoromethyl)pyrimidin-2-yl)amino)-3-ethylphenyl)piperazin-1-yl)acetamide]
≤ 5	CN1CCc2cc(Nc3ncc(C(F)(F)F)c(-c4cc5c(s4)C(=O)N(CC4CC4)CCS5(=O)=O)n3)c(Cl)cc2C1 [Example 154, 7-(2-((7-chloro-2-methyl-1,2,3,4-tetrahydroisoquinolin-6-yl)amino)-5-(trifluoromethyl)pyrimidin-4-yl)-4-(cyclopropylmethyl)-3,4-dihydrothieno[2,3-f][1,4]thiazepin-5(2H)-one 1,1-dioxide]
≤ 5	CCc1cc(N2C[C@H]3C[C@@H]2CN3)ccc1Nc1ncc(C(F)(F)F)c(-c2cc3c(s2)C(=O)N(C2CC2)CCS3(=O)=O)n1 [Example 322, 7-(2-((4-((1R,4R)-2,5-diazabicyclo[2.2.1]heptan-2-yl)-2-ethylphenyl)amino)-5-(trifluoromethyl)pyrimidin-4-yl)-4-cyclopropyl-3,4-dihydrothieno[2,3-f][1,4]thiazepin-5(2H)-one 1,1-dioxide]

Compound	IC50 [nM]
CN1[C@@H]2CC[C@H]1CN(c1ccc(Nc3ncc(C(F)(F)F)c(-c4cc5c(s4)C(=O)N(C4COC4)CCS5(=O)=O)n3)c(C3CC3)c1)C2 [Example 320, 7-(2-((2-cyclopropyl-4-((1R,5S)-8-methyl-3,8-diazabicyclo[3.2.1]octan-3-yl)phenyl)amino)-5-(trifluoromethyl)pyrimidin-4-yl)-4-(oxetan-3-yl)-3,4-dihydrothieno[2,3-f][1,4]thiazepin-5(2H)-one 1,1-dioxide]	≤ 5

— patent US20250144094A1 (Erasca, Inc., priority 2021, published 2025)
